# Organism: Rattus norvegicus
# Assay: DrugMatrix - Regimen: Daily Repeat
# Assay type: toxicity, organism-based, Sprague-Dawley
# Design: regimen Daily Repeat, gender Male, age 6-8 weeks
# Conditions: in vivo, po, route oral GAVAGE, […]; for ABSOLUTE BASOPHIL / ABSOLUTE EOSINOPHIL / ABSOLUTE LYMPHOCYTE / ABSOLUTE MONOCYTE / ABSOLUTE SEGMENTED NEUTROPHIL / BASOPHIL / EOSINOPHIL / ERYTHROCYTE COUNT / HEMATOCRIT / HEMOGLOBIN / LEUKOCYTE COUNT / LYMPHOCYTE / MEAN CORPUSCULAR HEMOGLOBIN / MEAN CORPUSCULAR HEMOGLOBIN CONCENTRATION / MEAN CORPUSCULAR VOLUME / MONOCYTE / NEUTROPHIL / NUCLEATED RED BLOOD CELLS / PLATELET COUNT: tissue Blood; for ALANINE AMINOTRANSFERASE / ALBUMIN / ALKALINE PHOSPHATASE / ASPARTATE AMINOTRANSFERASE / BLOOD UREA NITROGEN / CARBON DIOXIDE / CHLORIDE / CHOLESTEROL / CREATINE PHOSPHOKINASE / CREATININE / GLUCOSE / LACTATE DEHYDROGENASE / LIPASE / PHOSPHORUS / POTASSIUM / SODIUM / TOTAL BILIRUBIN / TOTAL PROTEIN / URIC ACID: tissue Plasma
# [1] = 0 mg/kg, 72 h, dose level Control, time 3 day
# [2] = 0 mg/kg, 120 h, dose level Control, time 5 day
# [3] = 12 mg/kg, 72 h, dose level Low, time 3 day
smiles,measurement,setting,value
COc1ncnc(NS(=O)(=O)c2ccc(N)cc2)c1OC [SULFADOXINE],ABSOLUTE BASOPHIL,[1],0 CELLS/uL
same,ABSOLUTE EOSINOPHIL,[1],41.83 CELLS/uL
same,ABSOLUTE LYMPHOCYTE,[1],8545.5 CELLS/uL
same,ABSOLUTE MONOCYTE,[1],240 CELLS/uL
same,ABSOLUTE SEGMENTED NEUTROPHIL,[1],906 CELLS/uL
same,BASOPHIL,[1],0%
same,EOSINOPHIL,[1],0.33%
same,ERYTHROCYTE COUNT,[1],5.6 x10E6/uL
same,HEMATOCRIT,[1],35.4%
same,HEMOGLOBIN,[1],13.42 G/DL
same,LEUKOCYTE COUNT,[1],9.73 x10E3/uL
same,LYMPHOCYTE,[1],87.83%
same,MEAN CORPUSCULAR HEMOGLOBIN,[1],23.98 pg
same,MEAN CORPUSCULAR HEMOGLOBIN CONCENTRATION,[1],37.92 G/DL
same,MEAN CORPUSCULAR VOLUME,[1],63.3 fL
same,MONOCYTE,[1],2.5%
same,NEUTROPHIL,[1],9.33%
same,NUCLEATED RED BLOOD CELLS,[1],0 /100WBC
same,PLATELET COUNT,[1],1032 x10E3/uL
same,ALANINE AMINOTRANSFERASE,[1],72.83 u/L
same,ALBUMIN,[1],4 G/DL
same,ALKALINE PHOSPHATASE,[1],322.83 u/L
same,ASPARTATE AMINOTRANSFERASE,[1],102.67 u/L
same,BLOOD UREA NITROGEN,[1],12 mg/dL
same,CARBON DIOXIDE,[1],34.33 mmol/L
same,CHLORIDE,[1],97.67 MEQ/L
same,CHOLESTEROL,[1],82.5 mg/dL
same,CREATINE PHOSPHOKINASE,[1],410.33 u/L
same,CREATININE,[1],0.18 mg/dL
same,GLUCOSE,[1],164.5 mg/dL
same,LACTATE DEHYDROGENASE,[1],119.5 u/L
same,LIPASE,[1],11.83 u/L
same,PHOSPHORUS,[1],9.52 mg/dL
same,POTASSIUM,[1],5.56 MEQ/L
same,SODIUM,[1],142.48 MEQ/L
same,TOTAL BILIRUBIN,[1],0.18 mg/dL
same,TOTAL PROTEIN,[1],5.77 G/DL
same,URIC ACID,[1],0.48 mg/dL
same,ABSOLUTE BASOPHIL,[2],0 CELLS/uL
same,ABSOLUTE EOSINOPHIL,[2],0 CELLS/uL
same,ABSOLUTE LYMPHOCYTE,[2],9065 CELLS/uL
same,ABSOLUTE MONOCYTE,[2],341.33 CELLS/uL
same,ABSOLUTE SEGMENTED NEUTROPHIL,[2],527 CELLS/uL
same,BASOPHIL,[2],0%
same,EOSINOPHIL,[2],0%
same,ERYTHROCYTE COUNT,[2],5.25 x10E6/uL
same,HEMATOCRIT,[2],34.08%
same,HEMOGLOBIN,[2],13.5 G/DL
same,LEUKOCYTE COUNT,[2],9.93 x10E3/uL
same,LYMPHOCYTE,[2],91.17%
same,MEAN CORPUSCULAR HEMOGLOBIN,[2],25.7 pg
same,MEAN CORPUSCULAR HEMOGLOBIN CONCENTRATION,[2],39.62 G/DL
same,MEAN CORPUSCULAR VOLUME,[2],64.93 fL
same,MONOCYTE,[2],3.33%
same,NEUTROPHIL,[2],5.5%
same,NUCLEATED RED BLOOD CELLS,[2],0 /100WBC
same,PLATELET COUNT,[2],1077.5 x10E3/uL
same,ALANINE AMINOTRANSFERASE,[2],57.83 u/L
same,ALBUMIN,[2],4.07 G/DL
same,ALKALINE PHOSPHATASE,[2],319.17 u/L
same,ASPARTATE AMINOTRANSFERASE,[2],83.33 u/L
same,BLOOD UREA NITROGEN,[2],13.67 mg/dL
same,CARBON DIOXIDE,[2],30.83 mmol/L
same,CHLORIDE,[2],98.33 MEQ/L
same,CHOLESTEROL,[2],64.83 mg/dL
same,CREATINE PHOSPHOKINASE,[2],263.67 u/L
same,CREATININE,[2],0.2 mg/dL
same,GLUCOSE,[2],182.83 mg/dL
same,LACTATE DEHYDROGENASE,[2],124 u/L
same,LIPASE,[2],10.5 u/L
same,PHOSPHORUS,[2],10 mg/dL
same,POTASSIUM,[2],5.78 MEQ/L
same,SODIUM,[2],142.48 MEQ/L
same,TOTAL BILIRUBIN,[2],0.2 mg/dL
same,TOTAL PROTEIN,[2],6 G/DL
same,URIC ACID,[2],0.7 mg/dL
same,ABSOLUTE BASOPHIL,[3],0 CELLS/uL
same,ABSOLUTE EOSINOPHIL,[3],0 CELLS/uL
same,ABSOLUTE LYMPHOCYTE,[3],9669.67 CELLS/uL
same,ABSOLUTE MONOCYTE,[3],359.33 CELLS/uL
same,ABSOLUTE SEGMENTED NEUTROPHIL,[3],937.67 CELLS/uL
same,BASOPHIL,[3],0%
same,EOSINOPHIL,[3],0%
same,ERYTHROCYTE COUNT,[3],5.36 x10E6/uL
same,HEMATOCRIT,[3],34.67%
same,HEMOGLOBIN,[3],13.5 G/DL
same,LEUKOCYTE COUNT,[3],10.97 x10E3/uL
same,LYMPHOCYTE,[3],88.33%
same,MEAN CORPUSCULAR HEMOGLOBIN,[3],25.23 pg
same,MEAN CORPUSCULAR HEMOGLOBIN CONCENTRATION,[3],38.97 G/DL
same,MEAN CORPUSCULAR VOLUME,[3],64.87 fL
same,MONOCYTE,[3],2.67%
same,NEUTROPHIL,[3],9%
same,NUCLEATED RED BLOOD CELLS,[3],0 /100WBC
same,PLATELET COUNT,[3],1062.67 x10E3/uL
same,ALANINE AMINOTRANSFERASE,[3],67.67 u/L
same,ALBUMIN,[3],4 G/DL
same,ALKALINE PHOSPHATASE,[3],358.33 u/L
same,ASPARTATE AMINOTRANSFERASE,[3],91.33 u/L
same,BLOOD UREA NITROGEN,[3],12.67 mg/dL
same,CARBON DIOXIDE,[3],32.33 mmol/L
same,CHLORIDE,[3],98.33 MEQ/L
same,CHOLESTEROL,[3],76.33 mg/dL
same,CREATINE PHOSPHOKINASE,[3],340.67 u/L
same,CREATININE,[3],0.29 mg/dL
same,GLUCOSE,[3],154.67 mg/dL
same,LACTATE DEHYDROGENASE,[3],166 u/L
same,LIPASE,[3],10.67 u/L
same,PHOSPHORUS,[3],10.17 mg/dL
same,POTASSIUM,[3],5.55 MEQ/L
same,SODIUM,[3],143.6 MEQ/L
same,TOTAL BILIRUBIN,[3],0.23 mg/dL
same,TOTAL PROTEIN,[3],5.77 G/DL
same,URIC ACID,[3],0.33 mg/dL

# Source: ChEMBL document CHEMBL3885881, “DrugMatrix”
